From patent US5627160A, “L-2',3'-dideoxy nucleoside analogs as anti-hepatitis B (HBV) and anti-HIV agents” (priority 1993, dated 1997)
Entries after “also recorded” stand apart in the source; their conditions may differ. Read-outs that look alike come from different tables or passages of the source.

Tests used:
[1] = system: Hepatitis B virus; details: Chang et al., 1992; cited from earlier work
[2] = system: human immunodeficiency virus (HIV); details: Larder et al., 1990, cited from earlier work
[3] = system: Hepatitis B viral infections; details: chronic HBV infection; foscarnet in fulminant hepatitis; cited from earlier work
[4] = system: HBV; experiment: Inhibition of HBV replication (secreted viral DNA, Southern analysis) in 2.2.15 cells; format: cell-based, Hepatitis B virus (in human hepatoma cell line 2.2.15); details: for IC50: Hepatitis B virus, 144 h, 2.2.15 cells, read-out: Anti-HBV ID50; for Activity against HBV, comparison / Inhibition of HBV DNA replication: in words
Experimental: The biological activity of the present compounds was assessed as described by Doong, S-L, et al., Proc. Natl. Acad. Sci. U.S.A 88, 8495-8499 (1991). The human hepatoma cell line carrying the HBV (designated 2.2.15) kindly provided by Dr. G. Acs was used in the study. Price, et al., Proc. Natl. Acad. Sci. U.S.A. 86, 8541 (1989). Briefly, six day-old cultures were treated with varying concentrations of the drug in the culture medium (Minimum essential medium with Earl's salts and 10% fetal bovine serum). The drug was left in the culture medium for a period of 3 days after which period the medium was aspirated and fresh medium containing the same concentration(s) of the drug was added. At the end of the subsequent 3 day period the culture medium was harvested. The culture medium was processed for obtaining the virions by the polyethylene glycol precipitation method (Doong, et al., supra). Viral DNA thus recovered from the secreted particles was subjected to Southern analysis. Inhibition of the viral replication was determined by the comparison of the viral DNA from drug-treated versus control cultures not treated with the drug.

[5] = Cellular toxicity in T-lymphoblastoic cell line (CEM), cell numbers 3 days post treatment; format: cell-based; details: human; CEM cells, 3 days; read-out: Cytotoxicity CEM Cells ID50
Experimental: (§1) To determine the cellular toxicity of the present compounds, the T-lymphoblastoic cell line (CEM) was used. Cells were subjected to varying concentrations of the drug(s) and cell numbers were determined 3 days post treatment by the method described by Chen, C-H and Cheng, Y-C J. Biol. Chem., 264, 11934 (1989). Concentrations of the drug which would result in 50% killing of the cell populations were determined from the plot generated by representing cell numbers corresponding to the individual drug concentrations.

[6] = system: HIV-1 (HTLV-IIIB Strain); experiment: Anti-HIV drug susceptibility assay in MT-2 cells (MTT dye reduction); format: cell-based; details: for IC50: MT-2 cells; for Anti-HIV activity compared with ddC: in words
Experimental: Drug susceptibility assay for determining the effectiveness of the compounds of the present invention against HIV in MT-2 cells is a modification of the assay described in Mellors, et al., Molecular Pharmacology, 41, 446 (1992). Drug-mediated inhibition of virus-induced cell toxicity was measured by the A595 of MTT ([3-I 4,5-dimethyl thiazol-2-yl]-2,3-diphenyltetrazolium bromide) (Sigma M-2128). Triplicate wells of a 96 well plate which contains 1×10^4 MT2 cells (AIDS-repository) were infected with HIV-1 (HTLV-IIIB Strain-R.C. Gallo) at a multiplicity of 0.01 TCID50 /cell. MT-2 cells in RPMI 1640 media supplemented with 10% dialysized fetal bovine and 100 ug/ml Kanamycin were infected with virus and immediately added to serial dilution of the drug. After 5 days, 20 ul of MTT dye (2.5 mg/ml in PBS) was added per well. At the end of a four hour incubation period 150 ul of acidified 2-propanol with NP-40 non-ionic detergent was added. After the crystals of dye dissolve (usually 1-2 days), the plates are read on a micro-plate reader. Using this MTT-dye reduction method (as set forth by Larder, et al., Antimicrobial Agents and Chemotherapy, 34, 436 (1990), the percentage of protection can be calculated using the formula [(a-b/c-b)×100] in which a=A595 of drug treated cells, b is […] and c is the A595 of the non-drug infected cells.

[7] = system: CEM Cells; experiment: Cellular toxicity in T-lymphoblastoic cell line (CEM), cell numbers 3 days post treatment; format: cell-based; details: in words, β-L-ddC / β-L-FddC versus ddC
Experimental: as §1

[8] = in words; cited from earlier work
[9] = in vitro; details: human, cem cells
Experimental: (§2) The effects of the various drug concentrations on mitochondrial DNA (mt DNA) was evaluated by the method described by Chen and Cheng, supra. CEM cells treated with varying concentrations of the drug were collected by centrifugation. After washing the cells with phosphate buffered saline, cells were lysed by suspending the cells in 10 mM Tris-HCl (pH 7.0) and repeating freeze thaw cycles. The resulting cells were then subjected to RNase A treatment at a final enzyme concentration of 10 ug/ml, followed by proteinase K treatment (100 ug/ml) for 1 hour. The DNA thus obtained by this procedure was then immobilized on nylon membrane after the addition of 0.8 vol of NaI and boiling for 10 minutes. Hybridization of the resulting DNA to a mt DNA specific probe was performed by following the method of Doong, S-L, supra and autoradiography was also performed. Quantitative estimates were obtained by scanning densitometer. The blots were stripped of the mtDNA probe and rehybridized to human Alu sequence probe to determine the amounts of DNA for normalization and estimation of absolute amounts of the mt DNA.

[10] = system: mitochondrial DNA (mt DNA)
Experimental: as §2

[11] = Human immunodeficiency virus 1, MT2, 120 h, HIV-1 HTLV-IIIB, Table 1, read-out: Anti-HIV ID50
[12] = Human immunodeficiency virus 1, IIIB, MT2, 120 h, read-out: ID50 concentration required to inhibit viral replication (HIV)

Nc1nc(=O)n([C@@H]2CS[C@H](CO)O2)cc1F (relative stereo) [(±)5-FSddC]
Activity against Hepatitis B virus in culture [1]: potent activity

Nc1ccn([C@@H]2CS[C@H](CO)O2)c(=O)n1 (relative stereo) [(±) SddC, (+) and (-)-2',3'-Dideoxy-3'-thiacytidine]
Activity against Hepatitis B virus in culture [1]: potent inhibitors of Hepatitis B virus

Nc1ccn([C@H]2CS[C@@H](CO)O2)c(=O)n1 (stereo in doubt) [(-)isomer, (-)-2',3'-Dideoxy-3'-thiacytidine]
Activity against Hepatitis B virus in culture [1]: potent activity | Toxicity [1]: relatively low toxicity

[N-]=[N+]=N[C@H]1C[C@H](n2ccc(=O)[nH]c2=O)O[C@@H]1CO [3'-azido-2',3'-dideoxyuridine]
Activity against human immunodeficiency virus [2]: significant activity

Nc1ncnc2c1ncn2[C@H]1C[C@H](F)[C@@H](CO)O1 [3'-fluoro-2',3'-dideoxyadenosine]
Activity against human immunodeficiency virus [2]: significant activity

Cc1cn([C@H]2C[C@H](F)[C@@H](CO)O2)c(=O)[nH]c1=O [3'-fluoro-3'-deoxythymidine]
Activity against human immunodeficiency virus [2]: significant activity

Cc1cn([C@H]2C[C@H](N=[N+]=[N-])[C@@H](CO)O2)c(=O)[nH]c1=O [AZT, 3'-azido-3'deoxythymidine]
Success of therapy of hepatitis B [3]: little, if any, success

Nc1nc2c(ncn2[C@H]2C=C[C@@H](CO)C2)c(=O)[nH]1 [Carbovir, carbocyclic analog of 2',3'-dideoxy-2',3'-didehydroguanosine]
Activity against human immunodeficiency virus [2]: significant activity

Nc1ccn([C@H]2C=C[C@@H](CO)O2)c(=O)n1 [Compound D4C, 2',3'-dideoxy-2',3'-didehydrocytidine]
Activity against human immunodeficiency virus [2]: significant activity

Cc1cn([C@H]2C=C[C@@H](CO)O2)c(=O)[nH]c1=O [Compound D4T, 3'-deoxy-2',3'-didehydrothymidine]
Activity against human immunodeficiency virus [2]: significant activity

OC[C@@H]1CC[C@H](n2cnc3c(O)ncnc32)O1 [DDI, 2',3'-dideoxyinosine]
Activity against human immunodeficiency virus [2]: significant activity

Nc1nc2c(ncn2COCCO)c(=O)[nH]1 [acyclovir]
Success of therapy of hepatitis B [3]: little, if any, success

Nc1ncnc2c1ncn2[C@@H]1O[C@H](CO)[C@@H](O)[C@@H]1O [adenine arabinoside]
Success of therapy of hepatitis B [3]: limited success

Nc1nc(=O)n([C@H]2CC[C@H](CO)O2)cc1F [alpha-L-FddC, 1(2,3-dideoxy-alpha-L-ribofuranosyl)-5-fluorocytosine]
IC50 [4]: 500 nM | CC50 at 72 h [5]: > 100000 nM | IC50 [6, 11]: 300 nM

Nc1ccn([C@H]2CC[C@H](CO)S2)c(=O)n1 [alpha-L-ddSC, 1(2,3-dideoxy-4-thio-alpha-L-ribofuranosyl) cytosine]
IC50 [4]: > 500 nM | CC50 at 72 h [5]: > 100000 nM | IC50 [6, 11]: > 100000 nM

Nc1ncnc2c1ncn2[C@@H]1O[C@H](COP(=O)(O)O)[C@@H](O)[C@@H]1O [ara-AMP]
Success of therapy of hepatitis B [3]: limited success

Nc1ccn([C@H]2CC[C@@H](CO)O2)c(=O)n1 [ddC, 1-(2,3-dideoxy-beta-D-ribofuranosyl)cytosine, reference compound]
IC50 [4]: 2800 nM | CC50 at 72 h [5]: 28000 nM | Cellular cytotoxicity, comparison with ddC [7]: much more cytotoxic; also recorded: more cytotoxic than β-L-FddC | IC50 [6, 12]: 28 nM | Anti-HIV activity compared with ddC [6]: less active against HIV | Activity against human immunodeficiency virus [2]: among the most potent inhibitors of HIV | Activity against human immunodeficiency virus ([2]; listed as DDC): significant activity | Dose limiting toxicity [8]: severe neuropathy | IC50 [9]: 22 nM

O=C(O)P(=O)(O)O [foscarnet]
Success of therapy of hepatitis B [3]: little, if any, success

Nc1nc(=O)n([C@@H]2CC[C@H](CO)O2)cc1F [β-L-FddC, 1-(2,3-dideoxy-beta-L-ribofuranosyl)-5-fluorocytosine]
IC50 [4]: 10 nM | Activity against HBV, comparison [4]: several fold higher activity against HBV | Inhibition of HBV DNA replication [4]: efficiently inhibited | CC50 at 72 h [5]: 67000 nM | Cellular cytotoxicity, comparison with ddC [7]: considerably less | Difference of anti-HIV ID50, β-L-FddC versus ddC ([6]; 0.007 vs 0.028 micromolar): 4 fold | IC50 [6, 12]: 7 nM | Anti-HIV activity compared with ddC [6]: significantly more effective than ddC; also recorded: several fold higher activity against HIV | Effect on host mitochondrial DNA [10]: relatively little effect | Toxicity associated with dose limiting neuropathy [10]: virtually no toxicity associated with dose limiting neuropathy | IC50 [9]: > 100000 nM

Nc1ccn([C@@H]2CC[C@H](CO)O2)c(=O)n1 [β-L-ddC, 1-(2,3-dideoxy-beta-L-ribofuranosyl)cytosine]
IC50 [4]: 10 nM | Activity against HBV, comparison [4]: several fold higher activity against HBV | Inhibition of HBV DNA replication [4]: efficiently inhibited | CC50 at 72 h [5]: 70000 nM | Cellular cytotoxicity, comparison with ddC [7]: considerably less | IC50 [6, 11]: 350 nM | IC50 [9]: > 100000 nM

Nc1ccn([C@@H]2CC[C@H](CO)S2)c(=O)n1 [β-L-ddSC, 1-(2,3-dideoxy-4-thio-beta-L-ribofuranosyl)cytosine]
IC50 [4]: > 500 nM | CC50 at 72 h [5]: > 100000 nM | IC50 [6, 11]: 70000 nM

interferon alpha
Success of therapy of hepatitis B [3]: limited success
